Reference: the NIST ThermoML archive (doi:10.1016/j.fluid.2007.07.023)
Numbers after ± are expanded uncertainties.

Key:
[1] = refractive index (Na D-line) (dimensionless); details: 101.33 kPa, Liquid, Standard Abbe refractometry
[2] = 101.33 kPa, Liquid

Compound	refractive index ([1]; 293.15 K)	mass density ([2]; 293.15 K)	further results
CCCCCCCC [octane]	–	–	refractive index ([1]; 298.15 K): 1.3946 ± 0.0007; mass density ([2]; 298.15 K): 698.49 ± 0.71 kg/m3
Cc1ccccc1 [toluene]	1.496 ± 0.0007	866.78 ± 0.89 kg/m3	–
NC1CCCCC1 [cyclohexylamine]	–	–	refractive index ([1]; 288.15 K): 1.4624 ± 0.0007; mass density ([2]; 303.15 K): 858.2 ± 0.91 kg/m3
Nc1ccccc1 [aniline]	1.5962 ± 0.0007	1021.72 ± 1.6 kg/m3	–
